≈ marks a conversion by molar mass, not a printed value.
How the values were obtained:
[1] = tested on: α-amylase; experiment: α-amylase enzyme inhibition assay; type: biochemical, Saccharomyces cerevisiae; details: for IC50: α-amylase inhibition
Method: A reported protocol with slight modification was used to perform the α-amylase enzyme inhibition assay. A stock solution (1 unit/mL) was prepared by dissolving α-amylase solution from Saccharomyces cerevisiae in 50 mM potassium phosphate buffer (pH 6.8), and for the substrate, in the same buffer 20 mM p-nitrophenyl-α-D-glucopyranoside (PNG) was prepared. The assay was conducted in triplicate using 96-well plates. […] For the experiments, each well contained phosphate buffer 65 μL (50 mM, pH 6.8), PNG 25 μL, α-amylase enzyme 5 μL (0.05 U/mL), and test sample 5 μL. The plates were allowed to incubate at 37 °C for 30 min, followed by the addition of 100 μL sodium bicarbonate (0.5 mM) as a stopping agent.
By using a microplate reader (BioTek Elx-800, Winooski, VT, USA), absorbance was recorded at 405 nm. The percent inhibition was calculated using the formula: %Inhibition=Acontrol−Asample/Acontrol × 100 where Acontrol is the control absorbance and Asample is the sample absorbance.

[2] = tested on: SS-DNA (salmon sperm DNA); experiment: DNA binding study by viscometry; details: SS-DNA 87.72 μM, compound 5–30 μM, Ostwald viscometer
Method: The viscosity of the SS-DNA solution (87.72 μM) in the absence and the presence of complexes 1 and 2 (5–30 μM) was measured using an Ostwald viscometer. For accuracy, the readings were made in triplicate for each sample, and then an average flow rate was calculated. Data are presented as (η/ηo)^1/3 vs. binding ratio ® of [complex]/[DNA], where η is the relative viscosity of the complex-DNA adduct, and ηο is the relative viscosity of DNA alone. The relative viscosity values for SS-DNA in the presence (η) and the absence (ηο) of the complexes were calculated using the relation η = (t − to)/to, where t is the observed flow time in seconds.

[3] = DPPH free radical scavenging assay; details: for IC50: DPPH radical scavenging, read-out: IC50 (µM) ± SEM; for % Inhibition: DPPH
Method: (§1) DPPH and hydroxyl (•OH) radical scavenging assays based on spectroscopic measurements are simple in vitro methods used to evaluate the antioxidant potential of test compounds. The promising results of these assays could be exploited as preliminary tests in search of drugs with potential anticancer, anti-aging, and anti-inflammatory activities. Within this context, the abilities of the free ligand acid (HL) and synthesized complexes (1 and 2) to scavenge DPPH and hydroxyl radicals were determined in order to evaluate their potential antioxidant ability compared to that of vitamin C as a reference compound.
The in vitro DPPH free radical scavenging activities of the free ligand acid and complexes 1 and 2 were assessed, as per a reported procedure with slight modification in the protocol.
Different concentrations (15, 30, 60, 120, and 240 μM) of the free ligand acid and complexes were mixed with 1000 μL of 255 μM DPPH solution made in ethanol. The mixture solutions were shaken and incubated in the dark for 30 min at room temperature. The absorbance of the solutions was measured at 518 nm using a UV-VIS spectrophotometer. Ascorbic acid of fixed concentration was used as a positive control. The readings were made in triplicate. Percentage inhibition of the test compounds was evaluated by using the formula: %scavenging=Ac−As/Ac×100 where Ac and As are the observed absorbance values of the control and the sample, respectively.

[4] = Hydroxyl radical scavenging assay; details: for IC50: hydroxyl radical scavenging, read-out: IC50 (µM) ± SEM; for % Inhibition: hydroxyl radical
Method: as §1
The hydroxyl radical scavenging activities of the free ligand acid and synthesized complexes (1 and 2) were evaluated according to a reported method. Different concentrations (15, 30, 60, 120, and 240 μM) of the free ligand acid and complexes were mixed with 0.4 M phosphate buffer (pH 6.6) (1000 μL), 0.1% hydrogen peroxide (100 μL), 3.7 mM o-phenanthroline (200 μL), and 7.5 mM ferrous sulfate (100 μL). The mixtures were diluted with distilled water to 3000 μL before incubating for 30 min at room temperature. The absorbance of mixtures was recorded at 510 nm using ascorbic acid as a standard.
The %scavenging was calculated using the following formula: %scavenging=As−Ac/Ab−As×100 where As, Ac, and Ab are the observed absorbance values of the sample, control, and blank, respectively.

[5] = tested on: SS-DNA (salmon sperm DNA); experiment: DNA binding study by UV-visible absorption spectroscopy; details: complex-DNA interaction, calculated
Method: UV-visible absorption measurements can be used to monitor changes occurring in λmax values (red or blue shifts) and absorption intensity (hyper- or hypochromism) of either a test compound or DNA as a result of any possible interaction. These changes can be used to find some details about the mode of interaction of metal complexes with DNA [25]. In the present study, absorption titrations were made with a fixed concentration (200 μM) of complexes against varying concentrations (5-30 μM) of SS-DNA. The extent of complex-DNA binding was assessed by calculating intrinsic binding constant (Kb) values using the well-known Benesi-Hildebrand equation [26]. Ao/A-A0=ε[…]+1/Kb[DNA] where Kb is the binding constant, A is the absorbance of complex-DNA adduct, Ao is the absorbance of pure complex solution, [DNA] is the concentration of SS-DNA in mol/L, εH-G is the molar absorption co-efficient of each complex-DNA adduct, and εG is the molar absorption co-efficient of pure complex. […] Ao/A-Ao along the ordinate, as shown in Figure 3B and Figure 4B for complexes 1 and 2, respectively. […] The SS-DNA solution (ε = 6600 M^-1 cm^-1 at 260 nm) concentration was determined via absorption spectroscopy. The complex solutions (200 μM) were made in aqueous DMSO (1:4). […] To eliminate the absorbance of DNA, equivalent SS-DNA solutions were added to the complex and reference solutions. […]

| Structure (SMILES) | % α-Amylase Activity ([1]; concentration 31.25 µg/mL) | % α-Amylase Activity ([1]; concentration 62.5 µg/mL) | % α-Amylase Activity ([1]; concentration 125 µg/mL) | % α-Amylase Activity ([1]; concentration 250 µg/mL) | % α-Amylase Activity ([1]; concentration 500 µg/mL) | IC50 [1] | effect on the relative viscosity of the DNA [2] | IC50 [3] | % Inhibition ([3]; dose conc. 15 µM) | % Inhibition ([3]; dose conc. 30 µM) | % Inhibition ([3]; dose conc. 60 µM) | % Inhibition ([3]; dose conc. 120 µM) | % Inhibition ([3]; dose conc. 240 µM) | IC50 [4] | % Inhibition ([4]; dose conc. 15 µM) | % Inhibition ([4]; dose conc. 30 µM) | % Inhibition ([4]; dose conc. 60 µM) | % Inhibition ([4]; dose conc. 120 µM) | % Inhibition ([4]; dose conc. 240 µM) | ΔG [5] |
| --- | --- | --- | --- | --- | --- | --- | --- | --- | --- | --- | --- | --- | --- | --- | --- | --- | --- | --- | --- | --- |
| C[C@H]1O[C@H](O[C@H]2[C@H](O)[C@@H](O)[C@@H](O[C@H]3[C@H](O)[C@@H](O)C(O)O[C@@H]3CO)O[C@@H]2CO)[C@H](O)[C@@H](O)[C@@H]1N[C@H]1C=C(CO)[C@@H](O)[C@H](O)[C@H]1O (stereo partly shown) [Acrabose, acarbose, reference compound] | 14.34% | 26.42% | 46.39% | 68.61% | 84.33% | – | – | – | – | – | – | – | – | – | – | – | – | – | – | – |
| O=C(O)Cc1ccc(F)c(F)c1 [HL, 3,4-difluorophenylacetic acid] | 1.72% | 1.9% | 9.22% | 19.67% | 32.95% | 728.17 µg/mL (≈ 4.23 mM) | no effect | 1010 ± 1.99 µM | 1.09% | 3.05% | 5.07% | 7.77% | 12.55% | 1771 ± 1.17 µM | 0.009% | 1.050% | 1.070% | 2.770% | 6.660% | – |
| O=C1O[C@H]([C@@H](O)CO)C(O)=C1O [Vit. C, ascorbic acid, reference compound] | – | – | – | – | – | – | – | 127 ± 14 µM | 7.09% | 15.09% | 29.98% | 58.09% | 82.35% | 162 ± 12.1 µM | 6.78% | 10.49% | 16.87% | 43.87% | 70.55% | – |
| Cc1ccccn1.Cc1ccccn1.O=C([O-])Cc1ccc(F)c(F)c1.O=C([O-])Cc1ccc(F)c(F)c1.O=C([O-])Cc1ccc(F)c(F)c1.O=C([O-])Cc1ccc(F)c(F)c1.[Cu+2].[Cu+2] [complex 1, [Cu2(3,4-F2C6H3CH2COO)4(2-CH3py)2]] | 6.03% | 7.24% | 22.24% | 41.12% | 51.22% | 437.73 µg/mL | pronounced increase | 214 ± 7.77 µM | 8.07% | 15.77% | 25.39% | 39.00% | 51.12% | 283 ± 7.01 µM | 0.05% | 10.00% | 15.04% | 28.32% | 39.99% | -6.979 kcal/mol |
| Cc1cccnc1.Cc1cccnc1.O=C([O-])Cc1ccc(F)c(F)c1.O=C([O-])Cc1ccc(F)c(F)c1.O=C([O-])Cc1ccc(F)c(F)c1.O=C([O-])Cc1ccc(F)c(F)c1.[Cu+2].[Cu+2] [complex 2, [Cu2(3,4-F2C6H3CH2COO)4(3-CH3py)2]] | 5.33% | 8.33% | 20.46% | 38.00% | 50.30% | 455.32 µg/mL | pronounced increase | 365 ± 5.31 µM | 4.045% | 5.150% | 14.975% | 21.500% | 32.550% | 308 ± 6.89 µM | 0.04% | 1.30% | 14.50% | 25.00% | 35.99% | -7.808 kcal/mol |
